Source: patent US7727530B2, “Anti-cancer composition comprising proline or its derivatives and an anti-tumour antibody” (priority 2004, dated 2010)

Columns and labels:
Format in all cases: cell-based
[1] = tested on: Colo205 colon cancer cells; assay: MTT proliferation (chemosensitivity) assay, Colo205
[2] = tested on: colo250 colon cancer cell lines; assay: CHP with analytical EGFR-antibody, inhibition of proliferation; conditions: read-out: Inhibition of the control in %
Method: (§1) MTT proliferation tests were performed as described. The proliferation control of both the untreated cells and the CHP pre-treated cells is set to 100%.
(§2) Unless otherwise indicated, all cell lines were obtained from the American Type Culture Collection (ATCC, Rockville, Md.) and grown to confluent monolayers in RPMI-1640 bicarbonate medium (Seromed, Berlin, Germany) in a humidified incubator (5% CO2, 37° C.). Cells were checked for mycoplasma contamination. The medium was supplemented with 10% heat-inactivated foetal bovine serum (Seromed) and 4 mM glutamine. The cells were subcultured by trypsination (0.03% trypsin containing 0.02% EDTA, three times a week). Cells numbers were counted using a TOA Sysmex microcellcounter (TOA, Tokyo, Japan).
(§3) 10^4 cells/well were distributed into 96-well microtitre plates (100 μl medium) and the compounds to be tested were added in another 100 μl volume. All compounds were diluted in triplicate or in most cases in quadruplicate. Plates were incubated under tissue culture conditions for 4 days, except those for tests investigating the relationship between application time and response, and cell viability was measured using a modified MTT assay (formazane dye formation from tetrazolium salts by mitochondrial reduction; EZ4U, Biomedica, Vienna, Austria), assessing mitochondrial activity and thereby cell viability/cell numbers. […]

WI38 normal fibroblasts = assay: MTT proliferation (chemosensitivity) assay, WI38; conditions: W138
Method: as §1, §2, §3

[3] = tested on: A431 epidermoid carcinoma; assay: MTT proliferation (chemosensitivity) assay, A431; conditions: A431 EGFR-overexpressing cell line
Method: as §1, §2, §3

EGFR = EGFR expression of A431 cells after CHP pre-incubation; conditions: A431 cells pre-incubated with CHP
DLD1 colon cancer cells = assay: MTT proliferation (chemosensitivity) assay, DLD1; conditions: high concentrations of Cetuximab
Method: as §1, §2, §3

HT29 colon cancer cells = assay: MTT proliferation (chemosensitivity) assay, HT29; conditions: high concentrations of Cetuximab
Method: as §1, §2, §3

SW620 colon cancer cells = assay: MTT proliferation (chemosensitivity) assay, SW620
Method: as §1, §2
(§4) 10^4 cells/well were distributed into 96-well microtitre plates (100 μl medium) and the compounds to be tested were added in another 100 μl volume. All compounds were diluted in triplicate or in most cases in quadruplicate. Plates were incubated under tissue culture conditions for 4 days, except those for tests investigating the relationship between application time and response, and cell viability was measured using a modified MTT assay (formazane dye formation from tetrazolium salts by mitochondrial reduction; EZ4U, Biomedica, Vienna, Austria), assessing mitochondrial activity and thereby cell viability/cell numbers. In brief, the supplied substrate was diluted in an activator solution and 20 μl of the mixture added per well for 2 hrs. The optical density was measured at 450 nm using an empty well as reference in a microplate reader (Eurogenetics, Brussels, Belgium). For each cell line, 8 wells were used to measure the MTT signal of the medium control without test substances and the proliferation in the test wells was calculated in relation to these control values set to 100%.
SW620chp4 and A431chp4 cells represent cells pre-treated with 400 μg/ml CHP for 5 days under tissue culture conditions.

[4] = tested on: MIAPaCa2 pancreatic cancer cell line; assay: MTT proliferation (chemosensitivity) assay, MIAPaCa2
Method: as §1, §2
as §4, with “100%. Test results were recorded between 0.3 and 1.5 optical densities for slowly and rapidly proliferating cells respectively.” for “100%.”
Experiments using pre-incubation with CHP were performed using more cell lines, namely BxPC3 and MIAPaCa2 pancreatic cancer cell lines. […]

[5] = Homo sapiens, COLO 205, read-out: proliferation activity (% of control)
[6] = Homo sapiens, read-out: proliferation activity (% of control)
[7] = Homo sapiens, SW-620, read-out: proliferation activity (% of control)

CCOC(=O)[C@@H]1CC(O)CN1C (stereo partly shown) [A1.21, 4-hydroxy-1-methyl-proline ethyl ester]
proliferation activity (% of control) ([1]; Colo 205 cells pre-incubated with the derivative 50 μg/ml for 5 days, then Cetuximab, Cetuximab concentrations not given): 94.5 ± 1.7%

O=C(O)[C@@H]1C[C@H](O)CN1 [CHP, Cis-4-hydroxy-L-proline]
inhibition at 200 µg/mL ([2]; CHP 200 μg/ml alone): 7.3 ± 8.1%
inhibition at 100 µg/mL ([2]; CHP100, CHP 100 μg/ml alone): 2.9 ± 10.1%
interaction with Cetuximab, direct combination ([1]; C205, CHP 400 μg/ml, at 5 and […] (printed as concentrations of CHP)): antagonistic
interaction with Cetuximab, direct combination ([1]; C205, CHP 400 μg/ml, other concentrations): no significant interaction
interaction Avastatin-CHP pre-incubation ([1]; Colo205, high concentrations of Avastatin): Slightly synergistic effects
interaction with Cetuximab, direct combination ([1]; Colo205 cells, higher concentrations of CHP (50, 200 and 400 μg/ml), Cetuximab 40 μg/ml): antagonistic
activity at 12.5 µg/mL [1, 5]: 92.2 ± 1.4%
activity at 25 µg/mL [1, 5]: 94.4 ± 6.2%
activity at 50 µg/mL [1, 5]: 84.2 ± 2.1%
activity at 200 µg/mL [1, 5]: 15.7 ± 1%
activity at 400 µg/mL [1, 5]: 9.9 ± 0.4%
activity at 100 µg/mL [1, 6]: 45.5 ± 3.2%
interaction with Cetuximab, sequential combination (CHP pre-treatment) (WI38 normal fibroblasts): antagonistic effects
interaction of CHP pre-incubation with Cetuximab [3]: antagonistic interaction
expression of EGFR (EGFR): reduced expression of EGFR
interaction with Cetuximab, sequential combination (CHP pre-treatment) (DLD1 colon cancer cells): antagonistic effects
interaction with Cetuximab, sequential combination (CHP pre-treatment) (HT29 colon cancer cells): antagonistic effects
activity at 12.5 µg/mL (SW620 colon cancer cells; [7]): 98.7 ± 3%
activity at 25 µg/mL (SW620 colon cancer cells; [7]): 92.3 ± 0.9%
activity at 50 µg/mL (SW620 colon cancer cells; [7]): 91.9 ± 4.1%
activity at 200 µg/mL (SW620 colon cancer cells; [7]): 69.9 ± 2.6%
activity at 400 µg/mL (SW620 colon cancer cells; [7]): 51.3 ± 3.7%
activity at 100 µg/mL (SW620 colon cancer cells; [6]): 85.2 ± 0.7%
interaction with Cetuximab, direct combination (SW620 colon cancer cells; SW620 cells, low concentrations of CHP (6.3-50 μg/ml), Cetuximab 40 μg/ml): antagonistic
interaction CHP-Cetuximab, pre-incubation with CHP 200 μg/ml [4]: antagonistic interaction
interaction with Rituximab, CHP pre-treatment ([4]; 400 μg/ml CHP for 5 days): synergy
interaction Avastatin-CHP pre-incubation ([4]; high concentrations of Avastatin): Slightly synergistic effects
